Measurements as given in US11945792B2, “Crystalline forms of 6-(1-acryloylpiperidin-4-yl)-2-(4-phenoxyphenyl)nicotinamide” (BEIJING INNOCARE PHARMA TECH CO., LTD., priority 2018, dated 2024).
Values after ≈ are worked out from the molar mass of the structure shown. “Also recorded” adds a separate entry of the source.

Columns and labels:
Type in all cases: physicochemical
[1] = Equilibrium solubility in water at room temperature for 24 hours; conditions: for Form Change: residual solids by XRPD after 24 hours in water at room temperature; for pH: solubility test in water, 24 hours; for pH / Solubility: room temperature; for Solubility: water, 24 hours equilibrium
Description: 10 mg of Type A, B, D, and F samples each was added into a 1.5-mL glass vial, and 1.0 mL of water was then added. The mixture was rolled at 25 rpm at room temperature for 24 hours. The suspension was centrifuged and filtered to isolate the supernatant for HPLC concentration and purity testing and the residual solids were characterized by XRPD.

[2] = Interconversion of crystal forms via heating and slurry competition experiments; conditions: for form after slurry competition: slurry in various solvent systems
Description: Relationships among Type A-F crystal forms were investigated via heating and slurry competition experiments.

[3] = Hygroscopicity assessment by dynamic vapor sorption (DVS); conditions: for hygroscopicity class: Chinese Pharmacopeia 2010 definition; for hygroscopicity class / water uptake: 25° C., 80% RH; for form change after DVS test: XRPD before and after DVS test
Description: XRPD studies was performed using a Panalytical Empyrean X-ray powder diffractometer. The parameters of the X-ray powder diffraction of the present disclosure are as follows: • X-ray Reflection: Cu, Kα • Kα1 (Å): 1.540598; Kα2 (Å): 1.544426 • Kα2/Kα1 intensity ratio: 0.50 • Voltage: 45 (kV) • Current: 40 (mA) • Scanning range: from 3.0 degree to 40.0 degree • DSC data in the present disclosure were acquired by a TA Q2000. The parameters of the DSC method of the present disclosure were as follows: • Heating rate: 10° C./min • Purge gas: nitrogen • TGA data in the present disclosure are acquired by a TA Q5000. The parameters of the TGA method of the present disclosure were as follow: • Heating rate: 10° C./min • Purge gas: nitrogen • Dynamic vapor sorption (DVS) data in the present disclosure were acquired by a SMS (Surface Measurement Systems) DVS Intrinsic. The parameters of the dynamic vapor sorption (DVS) method of the present disclosure were as follows: • Temperature: 25° C. • Gas and flow rate: nitrogen, 200 mL/min • dm/dt: 0.002%/min • RH range: 0% RH-95% RH Approximate 10 mg of Type B sample in the present disclosure was assessed by hygroscopicity using a dynamic vapor sorption (DVS) instrument, and tested by XRPD before and after DVS test.

[4] = Solid-state stability assessment on storage (XRPD and HPLC purity); conditions: 92.5% RH for about 17 days
[5] = as above
Description: Approximate 10 mg of Type A sample was added into each 1.5-mL glass vial and stored at 80° C. (closed) for 1 day, 25° C./60% RH and 40° C./75% RH (open) for 1 week, then tested by XRPD and HPLC purity. Approximate 4 mg of Type B sample was added into each 1.5-mL glass vial and stored at 80° C. (closed) for 1 day, 25° C./60% RH and 40° C./75% RH (open) for 1 week, then tested by XRPD and HPLC purity. Approximate 4 mg of Type D sample was added into each 1.5-mL glass vial and stored at 25° C./60% RH and 40° C./75% RH (open) for 1 week, then tested by XRPD and HPLC purity. Approximate 7 mg of Type F sample was added into each 1.5-mL glass vial and stored at 80° C. (closed) for 1 day, 25° C./60% RH and 40° C./75% RH (open) for 1 week, then tested by XRPD and HPLC purity.

[6] = ACN, EtOH, MeOH/H2O (1:1, v/v) and H2O from RT to 50/70° C.
[7] = 25° C./60% RH and 40° C./75% RH (open) 1 week
[8] = 80° C. (closed) 1 day and 25° C./60% RH, 40° C./75% RH (open) 1 week

| SMILES | Form Change [1] | pH [1] | form after slurry [2, 6] | form after slurry competition [2] | hygroscopicity class ([3]; DVS) | Purity/initial purity ([5]; 25° C./60% RH (open)/1 week) [%] | Purity/initial purity ([5]; 40° C./75% RH (open)/1 week) [%] | change in purity after storage [5, 8] | stability of the form after storage [5, 8] | Purity/initial purity ([5]; 80° C. (closed)/1 day) [%] | Solubility [1] [µg/mL] | water uptake ([3]; DVS) [%] | stability of the form after storage [5, 7] | form change after DVS test [3] | also measured |
| --- | --- | --- | --- | --- | --- | --- | --- | --- | --- | --- | --- | --- | --- | --- | --- |
| C=CC(=O)N1CCC(c2ccc(C(N)=O)c(-c3ccc(Oc4ccccc4)cc3)n2)CC1 [Type A, 6-(1-acryloylpiperidin-4-yl)-2-(4-phenoxyphenyl)nicotinamide] | Yes, to Type B | 7.4 | converted to Type F | converted into anhydrate Type F | hygroscopic | 100.0 | 100.1 | no decrease in purity | did not change; also recorded: stable | 100.0 |  |  | relatively good physical and chemical stability |  | crystallinity after storage [4]: decreased |
| C=CC(=O)N1CCC(c2ccc(C(N)=O)c(-c3ccc(Oc4ccccc4)cc3)n2)CC1 [Type B, 6-(1-acryloylpiperidin-4-yl)-2-(4-phenoxyphenyl)nicotinamide] | No | 7.7 | converted to Type F | converted into anhydrate Type F | slightly hygroscopic | 99.5 | 99.7 | no decrease in purity | did not change; also recorded: stable | 99.7 | 6 (≈ 14 µM) | 0.5 |  | did not change; also recorded: no form change |  |
| C=CC(=O)N1CCC(c2ccc(C(N)=O)c(-c3ccc(Oc4ccccc4)cc3)n2)CC1 [Type C, 6-(1-acryloylpiperidin-4-yl)-2-(4-phenoxyphenyl)nicotinamide] |  |  |  |  |  |  |  |  |  |  |  |  |  |  | form after slurry ([2]; H2O at 50° C. for about 21 days): convert to anhydrate Type B |

Continued, in another order:

| Form Change [1] | pH [1] | form after slurry [2, 6] | form after slurry competition [2] | hygroscopicity class ([3]; DVS) | Purity/initial purity ([5]; 25° C./60% RH (open)/1 week) [%] | Purity/initial purity ([5]; 40° C./75% RH (open)/1 week) [%] | change in purity after storage [5, 8] | stability of the form after storage [5, 8] | Purity/initial purity ([5]; 80° C. (closed)/1 day) [%] | Solubility [1] [µg/mL] | water uptake ([3]; DVS) [%] | SMILES | stability of the form after storage [5, 7] | form change after DVS test [3] | also measured |
| --- | --- | --- | --- | --- | --- | --- | --- | --- | --- | --- | --- | --- | --- | --- | --- |
| No | 8.0 |  | converted into anhydrate Type F |  | 99.9 | 99.9 |  |  |  | 18 (≈ 42.1 µM) |  | C=CC(=O)N1CCC(c2ccc(C(N)=O)c(-c3ccc(Oc4ccccc4)cc3)n2)CC1 [Type D, 6-(1-acryloylpiperidin-4-yl)-2-(4-phenoxyphenyl)nicotinamide] | did not change; also recorded: stable |  | form after slurry ([2]; MeOH/H2O (aw~0.5) and EtOH/H2O (aw=0~1) at RT): converted to anhydrate Type F; form after dehydration ([2]; dehydration at elevated temperature): converted to anhydrate Type E; DVS finding ([3]; DVS): relative stable hydrate; change in purity after storage [5, 7]: no significant decrease in purity; Final form ([5]; 80° C. (closed)/1 day, XRPD): converted to a mixture of Type B and D; also recorded: converted to the mixture of Type B and D |
| No | 6.9 |  |  | slightly hygroscopic | 100.0 | 100.0 | no decrease in purity | did not change; also recorded: stable | 100.0 |  | 1.2 | C=CC(=O)N1CCC(c2ccc(C(N)=O)c(-c3ccc(Oc4ccccc4)cc3)n2)CC1 [Type F, 6-(1-acryloylpiperidin-4-yl)-2-(4-phenoxyphenyl)nicotinamide] | relatively good physical and chemical stability | did not change; also recorded: no form change | relative thermodynamic stability ([2]; between RT and 50/70° C.): thermodynamically more stable form than Type A/B/D; also recorded: more stable anhydrous form among Type A/B/D/F |
